How the values were obtained:
[1] = Metabolic stability in Wistar rat liver microsomes assessed as intrinsic clearance at 2.5 uM; assay type: ADME, Microsome; details: read-out: CLH
[2] = Half life in Wistar rat total plasma at 1 mg/kg, po by HPLC-MS/MS analysis; assay type: ADME, organism-based
[3] = Cmax in Wistar rat total plasma at 1 mg/kg, po by HPLC-MS/MS analysis; assay type: ADME, organism-based; set-up: dose 1 mg/kg, route po
Cytochrome P450 1A2 = target: T1, Cytochrome P450 1A2 (Homo sapiens, UniProt P05177); assay: Inhibition of CYP1A2 (unknown origin); assay type: ADME
T1 sequence (P05177 whole entry): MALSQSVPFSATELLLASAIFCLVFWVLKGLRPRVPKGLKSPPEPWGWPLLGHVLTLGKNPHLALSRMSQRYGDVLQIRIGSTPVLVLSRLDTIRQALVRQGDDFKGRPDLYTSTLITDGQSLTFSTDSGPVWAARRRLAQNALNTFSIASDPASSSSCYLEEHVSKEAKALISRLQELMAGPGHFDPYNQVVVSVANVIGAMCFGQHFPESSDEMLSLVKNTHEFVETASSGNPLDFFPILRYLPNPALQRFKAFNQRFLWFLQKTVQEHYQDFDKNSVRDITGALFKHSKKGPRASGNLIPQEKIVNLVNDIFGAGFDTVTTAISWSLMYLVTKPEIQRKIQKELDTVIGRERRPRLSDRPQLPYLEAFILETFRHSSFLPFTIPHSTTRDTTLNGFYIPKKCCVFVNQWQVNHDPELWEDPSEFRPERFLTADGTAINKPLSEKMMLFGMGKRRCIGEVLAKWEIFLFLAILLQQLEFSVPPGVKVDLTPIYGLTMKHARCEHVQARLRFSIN

[4] = Bioavailability in female dog at 10 mg/kg, po or 3 mg/kg, iv by HPLC-MS/MS analysis; assay type: ADME, organism-based, Canis lupus familiaris; details: in vivo
[5] = Plasma level ratio in Wistar rat assessed as ratio between plasma concentration in PCP-induced toxicity Wistar rat model to plasma concentration in pro-cognitive activity for subchronic PCP-induced cognitive impairment associated schizophrenia Wistar rat model
[6] = Toxicity in po dosed Wistar rat assessed NOAEL by 4 days toxicology study; assay type: organism-based; details: in vivo, time 4 day

microsomal CLint at 2.5 µM [1]: 29 µL/min/mg
half-life [2]: 1.17 h
Cmax [3]: 115 ng/mL
IC50 (Cytochrome P450 1A2): > 50 µM
bioavailability [4]: 6.7%
Structure (SMILES): Cc1onc(-c2ccc(F)cc2)c1COc1ccc2c(n1)CCN(C(=O)CS(C)(=O)=O)C2
Ratio [5]: 11
NOAEL at 96 h [6]: ≥ 500 mg/kg
